Here are results for 9 molecules from patent US20260022143A1, “Cyclic Peptide Inhibitors of IL-23” (JANSSEN PHARMACEUTICA NV, priority 2022, published 2026).

SMILES strings stand for the structures. Starred links: 1 amine or outer side, 2 acyl side, 3 side chain; linkers in the order of their positions; H or OH if unused. Positions of bridges follow the written chain, without caps; N, C: chain ends. Non-standard residues stand in square brackets, D forms with d. Residues, ends and D or L forms follow the SMILES beside them. *: point of attachment. Trp(7-Me) = Cc1cccc2c(C[C@H](N)C(=O)O)c[nH]c12; X1 = CN(CC[C@H](N[*:1])C(=O)[*:2])[*:3]; 2Nal = N[C@@H](Cc1ccc2ccccc2c1)C(=O)O; AEF = NCCOc1ccc(C[C@H](N)C(=O)O)cc1; X19 = C[N+](C)(C)C[C@@H](CC(=O)O)N*; Piperazinyl(4-Me) = CN1CCN(*)CC1; 3Pal = N[C@@H](Cc1cccnc1)C(=O)O; Lys(Me) = CNCCCC[C@H](N)C(=O)O; X5 = C[N+](C)(C)CCOCCOCC(=O)*; Pen = CC(C)(S)[C@H](N)C(=O)O; Thp = NC1(C(=O)O)CCOCC1; Me2NCH2CH2 = CN(C)CC*; X25 = COCCOCCN(C)*; Sar = CNCC(=O)O

For data set [1], the target named is T1, IL-23R (Homo sapiens, UniProt Q5VWK5).
T1 construct: host or cells: HEK293
T1 sequence (Q5VWK5 24-629): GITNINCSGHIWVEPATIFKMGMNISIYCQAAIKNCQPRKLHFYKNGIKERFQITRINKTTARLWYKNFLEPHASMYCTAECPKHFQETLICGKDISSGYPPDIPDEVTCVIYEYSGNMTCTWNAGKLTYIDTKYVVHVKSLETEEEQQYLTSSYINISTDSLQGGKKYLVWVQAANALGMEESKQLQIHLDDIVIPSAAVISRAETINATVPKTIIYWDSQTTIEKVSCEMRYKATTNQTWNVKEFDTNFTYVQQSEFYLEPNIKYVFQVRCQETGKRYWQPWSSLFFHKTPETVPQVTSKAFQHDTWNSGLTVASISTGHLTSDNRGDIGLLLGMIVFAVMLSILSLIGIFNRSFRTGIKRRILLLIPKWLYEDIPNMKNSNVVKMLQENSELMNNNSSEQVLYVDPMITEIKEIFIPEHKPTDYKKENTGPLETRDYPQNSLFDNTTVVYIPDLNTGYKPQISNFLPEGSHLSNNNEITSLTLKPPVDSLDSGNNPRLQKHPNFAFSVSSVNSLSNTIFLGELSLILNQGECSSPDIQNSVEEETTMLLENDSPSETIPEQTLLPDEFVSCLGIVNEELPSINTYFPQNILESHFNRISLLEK
In words: IL23R Reporter Assay. As to conditions: HEK293 cells containing IL-23R, IL-12RP1 and STAT-inducible firefly luciferase reporter; 10 ng/mL IL-23 (EC90); 5 h at 37° C.; read-out: IL23R Reporter Assay. The data set is classed as cell-based. (A reporter such as luciferase makes a cellular process visible.)

Data set [2] in a line: Exposed Polar Surface Area (EPSA). The class given is physicochemical. The following applies: SFC on Chirex 3014 column; sample 1 mM DMSO stock; read-out: EPSA. The procedure, abridged: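 Polarity measured by SFC on a Chirex 3014 column (35 °C, 4 mL/min) with methanol/ammonium formate in CO2 as gradient eluent. Retention times were normalised to EPSA (Å^2) against eight reference compounds.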

Turning to `CC(=O)N[C@@H]1C(=O)N[C@@H](CC(=O)N(C)C)C(=O)N[C@@H]([C@@H](C)O)C(=O)N[C@@H](Cc2c[nH]c3c(C)cccc23)C(=O)N[C@@H](CCCCN(C)C(C)=O)C(=O)N[C@H](C(=O)N[C@@H](Cc2ccc(OCCN(C)C)cc2)C(=O)N[C@@H](Cc2ccc3ccccc3c2)C(=O)NC2(C(=O)N[C@@H](CCC(=O)O)C(=O)N[C@@H](CC(N)=O)C(=O)N[C@@H](Cc3cccnc3)C(=O)N(C)CC(=O)N(C)C)CCOCC2)C(C)(C)SSC1(C)C` [compound 106, MeCO-Pen(3)-N(N(Me)2)-T-7MeW-K(NMeAc)-Pen(3)-AEF(N(Me)2)-2Nal-THP-E-N-3Pya-Sar-CON(Me)2] (Ac-[Pen]D(NMe2)T[Trp(7-Me)][Lys(Me)](Ac)[Pen]Y(Me2NCH2CH2)[2Nal][Thp]EN[3Pal][Sar]-NMe2; disulfide 1-6 (inferred)), the IC50 in data set [1] is 6.5 nM. Further, in data set [2], the EPSA came out at 153 A^2.
On the same counts, the results for `COCCOCCN(C)C(=O)CN(C)C(=O)[C@H](Cc1cccnc1)NC(=O)[C@H](CC(N)=O)NC(=O)[C@H](CCC(=O)O)NC(=O)C1(NC(=O)[C@H](Cc2ccc3ccccc3c2)NC(=O)[C@H](Cc2ccc(OCCN)cc2)NC(=O)[C@H]2NC(=O)[C@H](CCCCNC(C)=O)NC(=O)[C@H](Cc3c[nH]c4c(C)cccc34)NC(=O)[C@H]([C@@H](C)O)NC(=O)[C@H](CC(N)=O)NC(=O)[C@@H](NC(C)=O)C(C)(C)SSC2(C)C)CCOCC1` [compound 113] (Ac-[Pen]NT[Trp(7-Me)]K(Ac)[Pen][AEF][2Nal][Thp]EN[3Pal][Sar]-X25; disulfide 1-6 (inferred)) are 3.8 nM and 169 A^2.
As to `CC(=O)NCCCC[C@@H]1NC(=O)[C@H](Cc2c[nH]c3c(C)cccc23)NC(=O)[C@H]([C@@H](C)O)NC(=O)[C@H](CC(N)=O)NC(=O)[C@@H](NC(C)=O)C(C)(C)SSC(C)(C)[C@@H](C(=O)N[C@@H](Cc2ccc(OCCN)cc2)C(=O)N[C@@H](Cc2ccc3ccccc3c2)C(=O)NC2(C(=O)N[C@@H](CCC(=O)O)C(=O)N[C@@H](CC(N)=O)C(=O)N[C@@H](Cc3cccnc3)C(=O)N(C)CC(=O)N3CCN(C)CC3)CCOCC2)NC1=O` [compound 114] (Ac-[Pen]NT[Trp(7-Me)]K(Ac)[Pen][AEF][2Nal][Thp]EN[3Pal][Sar]-{Piperazinyl(4-Me)}; disulfide 1-6 (inferred)), the IC50 in data set [1] stood at 28 nM. Besides, in data set [2], the EPSA turned out to be 173 A^2.
Regarding `CC(=O)N[C@@H]1C(=O)N[C@@H](CC(=O)N(C)C)C(=O)N[C@@H]([C@@H](C)O)C(=O)N[C@@H](Cc2c[nH]c3c(C)cccc23)C(=O)N[C@@H](CCC(=O)N(C)C)C(=O)N[C@H](C(=O)N[C@@H](Cc2ccc(OCCN(C)C)cc2)C(=O)N[C@@H](Cc2ccc3ccccc3c2)C(=O)NC2(C(=O)N[C@@H](CCC(=O)N(C)C)C(=O)N[C@@H](CC(N)=O)C(=O)N[C@@H](Cc3cccnc3)C(=O)N(C)CC(=O)N(C)C)CCOCC2)C(C)(C)SSC1(C)C` [compound 118, MeCO-Pen(3)-N(N(Me)2)-T-7MeW-Q(N(Me)2)-Pen(3)-AEF(N(Me)2)-2Nal-THP-Q(N(Me)2)-N-3Pya-Sar-CON(Me)2] (Ac-[Pen]D(NMe2)T[Trp(7-Me)]E(NMe2)[Pen]Y(Me2NCH2CH2)[2Nal][Thp]E(NMe2)N[3Pal][Sar]-NMe2; disulfide 1-6 (inferred)), the IC50 in data set [1] is 2.1 nM. Moreover, the EPSA in data set [2] was 138 A^2.
On the same counts, the results for `CC(=O)N[C@@H]1C(=O)N[C@@H](C)C(=O)N[C@@H]([C@@H](C)O)C(=O)N[C@@H](Cc2c[nH]c3c(C)cccc23)C(=O)N[C@@H](C)C(=O)N[C@H](C(=O)N[C@@H](Cc2ccc(OCCN(C)C)cc2)C(=O)N[C@@H](Cc2ccc3ccccc3c2)C(=O)NC2(C(=O)N[C@@H](CCC(=O)O)C(=O)N[C@@H](CC(N)=O)C(=O)N[C@@H](Cc3cccnc3)C(=O)N(C)CC(=O)N(C)C)CCOCC2)C(C)(C)SSC1(C)C` [compound 119] (Ac-[Pen]AT[Trp(7-Me)]A[Pen]Y(Me2NCH2CH2)[2Nal][Thp]EN[3Pal][Sar]-NMe2; disulfide 1-6 (inferred)) are 6.3 nM and 159 A^2.
On the same counts, the results for `CC(=O)N[C@@H]1C(=O)N[C@@H](C)C(=O)N[C@@H]([C@@H](C)O)C(=O)N[C@@H](Cc2c[nH]c3c(C)cccc23)C(=O)N[C@@H](C)C(=O)N[C@H](C(=O)N[C@@H](Cc2ccc(OCCN(C)C)cc2)C(=O)N[C@@H](Cc2ccc3ccccc3c2)C(=O)NC2(C(=O)N[C@@H](C)C(=O)N[C@@H](CC(N)=O)C(=O)N[C@@H](Cc3cccnc3)C(=O)N(C)CC(=O)N(C)C)CCOCC2)C(C)(C)SSC1(C)C` [compound 121] (Ac-[Pen]AT[Trp(7-Me)]A[Pen]Y(Me2NCH2CH2)[2Nal][Thp]AN[3Pal][Sar]-NMe2; disulfide 1-6) are 13 nM and 145 A^2.
As to `CC(=O)N[C@@H]1C(=O)N[C@@H](CC(=O)N(C)C)C(=O)N[C@@H]([C@@H](C)O)C(=O)N[C@@H](Cc2c[nH]c3c(C)cccc23)C(=O)N[C@@H](CCCCN(C)C(C)=O)C(=O)N[C@H](C(=O)N[C@@H](Cc2ccc(OCCN(C)C)cc2)C(=O)N[C@@H](Cc2ccc3ccccc3c2)C(=O)NC2(C(=O)N[C@@H](CCCCN(C)C(C)=O)C(=O)N[C@@H](CC(N)=O)C(=O)N[C@@H](Cc3cccnc3)C(=O)N(C)CC(=O)N(C)C)CCOCC2)C(C)(C)SSC1(C)C` [compound 122, MeCO-Pen(3)-N(N(Me)2)-T-7MeW-K(NMeAc)-Pen(3)-AEF(N(Me)2)-2Nal-THP-K(NMeAc)-N-3Pya-Sar-CON(Me)2] (Ac-[Pen]D(NMe2)T[Trp(7-Me)][Lys(Me)](Ac)[Pen]Y(Me2NCH2CH2)[2Nal][Thp][Lys(Me)](Ac)N[3Pal][Sar]-NMe2; disulfide 1-6), in data set [1], the IC50 was 2.1 nM. For the same molecule, in data set [2], the EPSA was found to be 141 A^2.
On the same counts, the results for `CC(=O)NCCCC[C@@H]1NC(=O)[C@H](Cc2c[nH]c3c(C)cccc23)NC(=O)[C@H]([C@@H](C)O)NC(=O)[C@H](CC(N)=O)NC(=O)[C@@H](NC(=O)[C@@H](CCC(=O)N[C@H](CC(=O)O)C[N+](C)(C)C)NC(C)=O)C(C)(C)SSC(C)(C)[C@@H](C(=O)N[C@@H](Cc2ccc(OCCN)cc2)C(=O)N[C@@H](Cc2ccc3ccccc3c2)C(=O)NC2(C(=O)N[C@@H](CCCCNC(C)=O)C(=O)N[C@@H](CC(N)=O)C(=O)N[C@@H](Cc3cccnc3)C(=O)N(C)CC(N)=O)CCOCC2)NC1=O` [compound 125] (Ac-[dE](X19)[Pen]NT[Trp(7-Me)]K(Ac)[Pen][AEF][2Nal][Thp]K(Ac)N[3Pal][Sar]-NH2; disulfide 2-7 (inferred)) are 2 nM and 181 A^2.
On the same counts, the results for `CC(=O)N[C@@H]1C(=O)N[C@@H](CC(=O)N(C)C)C(=O)N[C@@H]([C@@H](C)O)C(=O)N[C@@H](Cc2c[nH]c3c(C)cccc23)C(=O)N[C@@H](CCN(C)C(=O)COCCOCC[N+](C)(C)C)C(=O)N[C@H](C(=O)N[C@@H](Cc2ccc(OCCN)cc2)C(=O)N[C@@H](Cc2ccc3ccccc3c2)C(=O)NC2(C(=O)N[C@@H](CCC(=O)O)C(=O)N[C@@H](CC(N)=O)C(=O)N[C@@H](Cc3cccnc3)C(=O)N(C)CC(=O)N(C)C)CCOCC2)C(C)(C)SSC1(C)C` [compound 130, MeCO-Pen(3)-N(N(Me)2)-T-7MeW-Dab(NMecPEG2a)-Pen(3)-AEF-2Nal-THP-E-N-3Pya-Sar-CON(Me)2] (Ac-[Pen]D(NMe2)T[Trp(7-Me)][X1](X5)[Pen][AEF][2Nal][Thp]EN[3Pal][Sar]-NMe2; disulfide 1-6) are 3.4 nM and 164 A^2.
